# Experimental data taken from patent US6362134B1, “Herbicidal 1,2,4,6-thiatriazines” (Syngenta Investment Corporation, priority 1996, dated 2002).
# Columns and labels:
# Type in all cases: in vivo
# [1] = system: Stellaria; assay: Herbicidal action before emergence of the plants (pre-emergent action); parameters: key: 1=complete damage; 9=no action; Ratings of 1 to 4 (in particular 1 to 3) mean a good to very good herbicidal action; details: 2000 g of active substance/ha, sprayed immediately after sowing, evaluated after 3 weeks, ratings scale of nine levels
# Protocol: (§1) Monocotyledon and dicotyledon test plants are sown in standard soil in plastic pots. Immediately after sowing, the test substances are sprayed on (500 l of water/ha) in an aqueous suspension prepared from a 25% wettable powder (Example F3, b)), corresponding to a dosage of 2000 g of active substance/ha. The test plants are then grown under optimum conditions in a greenhouse. After a test period of 3 weeks, the test is evaluated with a ratings scale of nine levels (1=complete damage, 9=no action). Ratings of 1 to 4 (in particular 1 to 3) mean a good to very good herbicidal action.
# (§2) Test plants: Avena, Setaria, Sinapis, Stellaria
# [2] = system: Sinapis; assay: as above; parameters: key: 1=complete damage; 9=no action; Ratings of 1 to 4 (in particular 1 to 3) mean a good to very good herbicidal action; details: 2000 g of active substance/ha, sprayed immediately after sowing, evaluated after 3 weeks, ratings scale of nine levels
# Protocol: as §1, §2
# [3] = system: Setaria; assay: as above; parameters: key: 1=complete damage; 9=no action; Ratings of 1 to 4 (in particular 1 to 3) mean a good to very good herbicidal action; details: 2000 g of active substance/ha, sprayed immediately after sowing, evaluated after 3 weeks, ratings scale of nine levels
# Protocol: as §1, §2
# [4] = system: Avena; assay: as above; details: 2000 g of active substance/ha, sprayed immediately after sowing, evaluated after 3 weeks, ratings scale of nine levels (1=complete damage, 9=no action)
# Protocol: as §1, §2
# [5] = system: Stellaria; assay: Post-emergent herbicidal action (contact herbicide); parameters: key: 1=complete damage; 9=no action; Ratings of 1 to 4 (in particular 1 to 3) mean a good to very good herbicidal action; details: 2000 g of active substance/ha, sprayed in the 4- to 6-leaf stage, evaluated after about 18 days, ratings scale 1-9
# Protocol: (§3) Monocotyledon and dicotyledon test plants are grown in plastic pots with standard soil in a greenhouse and, in the 4- to 6-leaf stage, are sprayed with an aqueous suspension of the test substances of the formula 1, prepared from a 25% wettable power (Example F3, b)), corresponding to a dosage of 2000 g of active substance/ha (500 l of water/ha). The test plants are then grown further in the greenhouse under optimum conditions. After a test period of about 18 days, the test is evaluated with a ratings scale of 9 levels (1=complete damage, 9=no action). Ratings of 1 to 4 (in particular 1 to 3) mean a good to very good herbicidal action.
# (§4) Test plants: Sinapis, Stellaria
# [6] = system: Sinapis; assay: as above; parameters: key: 1=complete damage; 9=no action; Ratings of 1 to 4 (in particular 1 to 3) mean a good to very good herbicidal action; details: 2000 g of active substance/ha, sprayed in the 4- to 6-leaf stage, evaluated after about 18 days, ratings scale 1-9
# Protocol: as §3, §4
Structure (SMILES),"Pre-emergent action, rating, Stellaria [1]","Pre-emergent action, rating, Sinapis [2]","Pre-emergent action, rating, Setaria [3]","Pre-emergent action, rating, Avena [4]","Post-emergent action, rating, Stellaria [5]","Post-emergent action, rating, Sinapis [6]"
NC1=NC(Oc2c(F)c(F)c(F)c(F)c2F)=NS(N2CCC[C@H]3CCC[C@H]32)=N1 (relative stereo) [6.27],1,2,3,4,3,2
CC1N(S2=NC(N)=NC(Oc3c(F)c(F)c(F)c(F)c3F)=N2)CCCC1(C)C (stereo not shown) [6.90],–,–,–,–,4,2
CC(C)N(C(C)C)S1=NC(Oc2c(F)c(F)c(F)c(F)c2F)=NC(N)=N1 (stereo not shown) [6.247],–,–,–,–,4,3
CCCC(CC)OS1=NC(N)=NC(Oc2c(F)c(F)c(F)c(F)c2F)=N1 (stereo not shown) [5.332],1,1,1,3,2,1
CC1CC(OS2=NC(N)=NC(Oc3c(F)c(F)c(F)c(F)c3F)=N2)CC(C)(C)C1 (stereo not shown) [5.86],1,1,3,5,–,–
CCC(C)(C)C1CCC(OS2=NC(N)=NC(Oc3c(F)c(F)c(F)c(F)c3F)=N2)CC1 (stereo not shown) [5.59],–,–,–,–,3,1
NC1=NC(OCC(Cl)(Cl)C(F)(F)F)=NS(OCCCl)=N1 (stereo not shown) [5.337],–,–,–,–,5,1
NC1=NC(Oc2cc(F)ccc2F)=NS(N2CCCCCC2)=N1 (stereo not shown) [6.57],–,–,–,–,4,2
CC1CC(C)CN(S2=NC(N)=NC(Oc3cc(F)ccc3F)=N2)C1 (stereo not shown) [6.23],–,–,–,–,4,2
NC1=NC(Oc2cc(F)ccc2F)=NS(N2CCc3ccccc3CC2)=N1 (stereo not shown) [6.164],–,–,–,–,3,1
NC1=NC(Oc2cc(F)ccc2F)=NS(N2CC[C@H]3CCCC[C@H]32)=N1 (relative stereo) [6.120],–,–,–,–,4,2
CC1(C)CC(OS2=NC(N)=NC(Oc3c(F)c(F)c(F)c(F)c3F)=N2)CC(C)(C)C1 (stereo not shown) [5.146],1,1,1,4,–,–
NC1=NS(N2CCCCCCCCCC2)=NC(Oc2c(F)c(F)cc(F)c2F)=N1 (stereo not shown) [6.320],–,–,–,–,3,2
CC1CCCC(OS2=NC(N)=NC(Oc3c(F)c(F)c(F)c(F)c3F)=N2)C1 (stereo not shown) [5.317],1,2,2,4,–,–
NC1=NC(Oc2c(F)c(F)c(F)c(F)c2F)=NS(NC2CCCCC2)=N1 (stereo not shown) [6.17],–,–,–,–,4,3
CC12CCCCC1N(S1=NC(N)=NC(Oc3c(F)c(F)c(F)c(F)c3F)=N1)CCC2 (stereo not shown) [6.181],–,–,–,–,3,2
CC1(C)C2CCC1(C)C(OS1=NC(N)=NC(Oc3c(F)c(F)c(F)c(F)c3F)=N1)C2 (stereo not shown) [5.154],–,–,–,–,4,2
NC1=NS(N2CCCCCCCCCCCC2)=NC(Oc2c(F)c(F)c(F)c(F)c2F)=N1 (stereo not shown) [6.177],–,–,–,–,2,2

Structure (SMILES),"Pre-emergent action, rating, Stellaria [1]","Pre-emergent action, rating, Sinapis [2]","Pre-emergent action, rating, Setaria [3]","Pre-emergent action, rating, Avena [4]","Post-emergent action, rating, Stellaria [5]","Post-emergent action, rating, Sinapis [6]"
NC1=NC(Oc2c(F)c(F)c(F)c(F)c2F)=NS(N2CCN(c3ccccc3)CC2)=N1 (stereo not shown) [6.77],1,1,3,4,–,–
NC1=NC(Oc2c(F)c(F)c(F)c(F)c2F)=NS(N2CCCC3CCCCCCC32)=N1 (stereo not shown) [6.102],–,–,–,–,3,2
NC1=NC(Oc2c(F)c(F)c(F)c(F)c2F)=NS(N2CC[C@H]3CCC[C@H]32)=N1 (relative stereo) [6.6],–,–,–,–,4,2
CC1CCC(C)N1S1=NC(N)=NC(Oc2c(F)c(F)c(F)c(F)c2F)=N1 (stereo not shown) [6.63],1,1,3,4,–,–
NC1=NC(Oc2c(F)c(F)c(F)c(F)c2F)=NS(OCC23CC4CC(CC(C4)C2)C3)=N1 (stereo not shown) [5.85],–,–,–,–,3,3
CC1CCN(S2=NC(Oc3cc(F)ccc3F)=NC(N)=N2)CC(C)(C)C1 (stereo not shown) [6.249],–,–,–,–,2,1
CC1CCCC(OS2=NC(N)=NC(Oc3c(F)c(F)c(F)c(F)c3F)=N2)C1 (stereo not shown) [5.141],–,–,–,–,4,2
"NC1=NC(Oc2c(F)c(F)c(F)c(F)c2F)=NS(N2CCCCC2)=N1 (stereo not shown) [6.53, 3-amino-5-pentafluorophenoxy-1-(piperidin-1-yl)thiatriazine]",1,1,3,3,–,–
CC1CCCC(OS2=NC(N)=NC(Oc3cc(F)ccc3F)=N2)C1 (stereo not shown) [5.318],–,–,–,–,4,2
NC1=NC(Oc2c(F)c(F)c(F)c(F)c2F)=NS(N2CC[C@H]3CCC[C@H]32)=N1 (relative stereo) [6.10],1,1,4,4,–,–
NC1=NS(N2CC3CCC(CC3)C2)=NC(Oc2cc(F)ccc2F)=N1 (stereo not shown) [6.81],–,–,–,–,3,2
NC1=NS(N2CCC3CCCCC3CC2)=NC(Oc2c(F)c(F)c(F)c(F)c2F)=N1 (stereo not shown) [6.283],–,–,–,–,4,1
CC(C)(C)C1CCC(OS2=NC(N)=NC(Oc3c(F)c(F)c(F)c(F)c3F)=N2)CC1 (stereo not shown) [5.316],–,–,–,–,4,2
CCCN(CCC)S1=NC(N)=NC(Oc2c(F)c(F)c(F)c(F)c2F)=N1 (stereo not shown) [6.21],–,–,–,–,4,2
CC1CC(NS2=NC(N)=NC(Oc3c(F)c(F)c(F)c(F)c3F)=N2)CC(C)(C)C1 (stereo not shown) [6.168],–,–,–,–,3,2
CC1CCC(OS2=NC(N)=NC(Oc3c(F)c(F)c(F)c(F)c3F)=N2)CC1 (stereo not shown) [5.327],1,2,3,4,–,–
CN(C1CCCCC1)S1=NC(N)=NC(Oc2c(F)c(F)c(F)c(F)c2F)=N1 (stereo not shown) [6.7],–,–,–,–,3,2
